Experimental data from BindingDB's records for doi:10.1016/j.bmc.2020.115681 (Takeda Pharmaceuticals International, 2020).

How the values were obtained:
[1] = target: T1, Ubiquitin-like modifier-activating enzyme ATG7 (Homo sapiens, UniProt O95352); assay: Inhibition of recombinant His-tagged human ATG7 incubated for 105 mins in presence of GST-tagged ATG3 and Flag-tagged Gabarap and measured after 2 hrs by FRET assay relative to control
T1 sequence (O95352 whole entry): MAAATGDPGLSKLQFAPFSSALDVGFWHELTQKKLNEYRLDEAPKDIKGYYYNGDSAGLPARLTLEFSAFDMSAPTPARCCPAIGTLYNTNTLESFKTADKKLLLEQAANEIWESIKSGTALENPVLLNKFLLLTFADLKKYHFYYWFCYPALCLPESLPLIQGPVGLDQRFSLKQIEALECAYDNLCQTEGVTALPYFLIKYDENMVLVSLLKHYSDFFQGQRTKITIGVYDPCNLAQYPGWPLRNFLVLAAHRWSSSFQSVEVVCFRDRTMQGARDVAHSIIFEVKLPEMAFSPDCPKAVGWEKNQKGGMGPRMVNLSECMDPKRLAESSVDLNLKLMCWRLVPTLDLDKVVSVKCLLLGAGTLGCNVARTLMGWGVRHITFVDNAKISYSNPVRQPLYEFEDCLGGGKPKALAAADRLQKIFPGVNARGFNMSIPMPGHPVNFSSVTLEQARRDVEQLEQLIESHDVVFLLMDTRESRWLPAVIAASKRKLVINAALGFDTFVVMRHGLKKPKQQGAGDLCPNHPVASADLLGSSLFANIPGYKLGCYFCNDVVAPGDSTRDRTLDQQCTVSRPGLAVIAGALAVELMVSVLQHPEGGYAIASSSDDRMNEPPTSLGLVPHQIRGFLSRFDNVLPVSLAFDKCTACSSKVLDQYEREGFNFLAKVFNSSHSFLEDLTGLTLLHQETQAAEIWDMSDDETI

[2] = target: T1, Ubiquitin-like modifier-activating enzyme ATG7; assay: Inhibition of ATG7 in human 293HEK cells assessed as inhibition of ATG7:ATG8 thioester formation after 4 hrs by Western blot analysis

Row | IC50 [1] [nM] | IC50 [2] [nM] | Structure (SMILES)
1 | 35 |  | Cc1cccc(Sc2nn([C@@H]3O[C@H](COS(N)(=O)=O)[C@@H](O)[C@@H]3F)c3ncnc(N)c23)c1 [[(2R,3R,4S,5R)-5-{4-amino-3-[(3-methylphenyl)sulfanyl]-1H-pyrazolo[3,4-d]pyrimidin-1-yl}-4-fluoro-3-hydroxytetrahydrofuran-2-yl]methyl sulfamate]
2 |  | 295 | CSc1nn([C@H]2C[C@H](O)[C@H](COS(N)(=O)=O)O2)c2ncnc(N)c12 [{(2S,3S,5R)-5-[4-amino-3-(methylsulfanyl)-1H-pyrazolo[3,4-d]pyrimidin-1-yl]-3-hydroxytetrahydrofuran-2-yl}methyl sulfamate]
